Where a name gives a salt, the structure may show the parent alone. Read-outs that look alike come from different tables or passages of the source.
Tests used:
Type in all cases: biochemical
[1] = biological target: T1, recombinant PRL-1 (Homo sapiens, UniProt Q93096); experiment: In vitro phosphatase assay (DiFMUP hydrolysis), PRL-1; note: test concentration or dose not given here
T1 construct: 6xHis (N, cleaved yes); made in house; host or cells: E. coli One Shot BL21 Star
T1 sequence (Q93096 1-173): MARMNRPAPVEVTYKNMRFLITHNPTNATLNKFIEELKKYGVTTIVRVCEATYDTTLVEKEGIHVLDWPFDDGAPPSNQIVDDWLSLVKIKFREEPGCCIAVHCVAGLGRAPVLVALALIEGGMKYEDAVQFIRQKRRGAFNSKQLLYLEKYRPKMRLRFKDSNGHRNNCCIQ

[2] = biological target: T2, recombinant PRL-2 (Homo sapiens, UniProt Q12974); experiment: In vitro phosphatase assay (DiFMUP hydrolysis), PRL-2;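 note: PRL-2 activity read as DiFMUP hydrolysis after 20 min at room temperature with drug, enzyme first pre-reduced at 4 °C for 20 min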
T2 construct: 6xHis (N, cleaved yes); made in house; host or cells: E. coli One Shot BL21 Star
T2 sequence (Q12974 1-167): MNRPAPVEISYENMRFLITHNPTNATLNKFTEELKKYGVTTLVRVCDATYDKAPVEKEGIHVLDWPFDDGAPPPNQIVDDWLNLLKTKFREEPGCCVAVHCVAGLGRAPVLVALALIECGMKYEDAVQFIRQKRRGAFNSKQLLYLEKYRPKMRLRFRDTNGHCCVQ

[3] = biological target: T3, recombinant PRL-3 (Homo sapiens, UniProt O75365); experiment: In vitro phosphatase assay (DiFMUP hydrolysis), PRL-3; note: test concentration or dose not given here
T3 construct: 6xHis (N, cleaved yes); made in house; host or cells: E. coli One Shot BL21 Star

[4] = FDA-approved drug screen, compared to DMSO
[5] = FDA-approved drug screen, activity compared to DMSO

T3 sequence (O75365 whole entry): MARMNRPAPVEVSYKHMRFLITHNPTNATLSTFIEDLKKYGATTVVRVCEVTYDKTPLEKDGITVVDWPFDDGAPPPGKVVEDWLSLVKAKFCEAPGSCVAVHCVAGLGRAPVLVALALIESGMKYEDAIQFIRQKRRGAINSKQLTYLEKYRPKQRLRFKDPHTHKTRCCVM

| Compound | % Phosphatase Activity (compared to DMSO) PRL-1 [1, 4] [%] | % Phosphatase Activity (compared to DMSO) PRL-2 [2, 4] [%] | % Phosphatase Activity (compared to DMSO) PRL-3 [3, 4] [%] | further results |
| --- | --- | --- | --- | --- |
| O=C1C(CC[S+]([O-])c2ccccc2)C(=O)N(c2ccccc2)N1c1ccccc1 (racemic) [(+/-)-Sulfinpyrazone] | 88 | 95 | 82 |  |
| Cc1ccc(C(=O)N(CCCN)[C@@H](c2nc3cc(Cl)ccc3c(=O)n2Cc2ccccc2)C(C)C)cc1 [Ispinesib (SB-715992)] | 103 | 108 | 80 |  |
| CC(=O)N[C@H]1[C@H]([C@H](O)[C@H](O)CO)OC(C(=O)O)=C[C@@H]1N=C(N)N [Zanamivir] |  |  |  | % Phosphatase Activity (compared to DMSO) PRL-1 [1, 5]: 90%; % Phosphatase Activity (compared to DMSO) PRL-2 [2, 5]: 98%; % Phosphatase Activity (compared to DMSO) PRL-3 [3, 5]: 115% |
| CNC(=C[N+](=O)[O-])NCCSCc1ccc(CN(C)C)o1 [Ranitidine] | 93 | 102 | 103 |  |
| C[C@]12CC[C@@H]3c4ccc(OC(=O)c5ccccc5)cc4CC[C@H]3[C@@H]1CC[C@@H]2O [Estradiol Benzoate] | 110 | 117 | 91 |  |
| Cc1nc(NC(=O)N2CCC[C@H]2C(N)=O)sc1-c1ccnc(C(C)(C)C(F)(F)F)c1 [BYL719] | 89 | 96 | 90 |  |
| C[C@@H]1[C@H](O)[C@@H](C)/C=C/C=C/CC/C=C/C=C/C=C/C=C/[C@H](O[C@H]2O[C@@H](C)[C@H](O)[C@@H](N)[C@H]2O)C[C@@H]2O[C@](O)(C[C@@H](O)[C@H](O)CC[C@@H](O)C[C@@H](O)C[C@@H](O)CC(=O)O[C@H]1C)C[C@H](O)[C@H]2C(=O)O [Nystatin (Fungicidin)] | 79 | 87 | 81 |  |
| Clc1ccc(C(Cn2ccnc2)OCc2c(Cl)cccc2Cl)c(Cl)c1 (stereo not drawn) [Isoconazole nitrate] | 112 | 110 | 89 |  |
| CCc1c2c(nc3ccc(OC(=O)N4CCC(N5CCCCC5)CC4)cc13)-c1cc3c(c(=O)n1C2)COC(=O)[C@]3(O)CC.Cl.O.O.O [Irinotecan HCl Trihydrate] | 4597 | 4207 | 4074 |  |
| CCOC(=O)c1ccc(C#Cc2ccc3c(c2)C(C)(C)CCS3)nc1 [Tazarotene] |  |  |  | % Phosphatase Activity (compared to DMSO) PRL-1 [1, 5]: 1414%; % Phosphatase Activity (compared to DMSO) PRL-2 [2, 5]: 1439%; % Phosphatase Activity (compared to DMSO) PRL-3 [3, 5]: 148% |
| CC/C(=C(/CC)c1ccc(O)cc1)c1ccc(O)cc1 [Diethylstilbestrol] | 86 | 97 | 92 |  |
| CC1(C)S[C@@H]2[C@H](NC(=O)[C@H](NC(=O)N3CCN(S(C)(=O)=O)C3=O)c3ccccc3)C(=O)N2[C@H]1C(=O)O [Mezlocillin Sodium] | 92 | 91 | 67 |  |
| N#Cc1ccccc1-c1cc(-c2ccccn2)cn(-c2ccccc2)c1=O [Perampanel] | 488 | 376 | 451 |  |
| CNCC[C@H](Oc1cccc2ccccc12)c1cccs1 [Duloxetine HCl] |  |  |  | % Phosphatase Activity (compared to DMSO) PRL-1 [1]: 97%; % Phosphatase Activity (compared to DMSO) PRL-2 [2]: 107%; % Phosphatase Activity (compared to DMSO) PRL-3 [3]: 89% |
| CC(C)C[C@H](NC(=O)[C@H](Cc1ccccc1)NC(=O)c1cnccn1)B(O)O [Bortezomib (PS-341)] | 104 | 121 | 93 |  |
| Cc1ccc(Cl)c(Nc2ccccc2C(=O)O)c1Cl [Meclofenamate Sodium] | 99 | 104 | 81 |  |
| Cn1nnc(-c2ccc(-c3ccc(N4C[C@H](COP(=O)(O)O)OC4=O)cc3F)cn2)n1 [Tedizolid Phosphate] |  |  |  | % Phosphatase Activity (compared to DMSO) PRL-1 [1, 5]: 97%; % Phosphatase Activity (compared to DMSO) PRL-2 [2, 5]: 97%; % Phosphatase Activity (compared to DMSO) PRL-3 [3, 5]: 87% |
| Nc1ncnc2c1ncn2[C@@H]1O[C@H](CO)[C@@H](O)[C@@H]1O [Vidarabine] |  |  |  | % Phosphatase Activity (compared to DMSO) PRL-1 [1, 5]: 106%; % Phosphatase Activity (compared to DMSO) PRL-2 [2, 5]: 116%; % Phosphatase Activity (compared to DMSO) PRL-3 [3, 5]: 121% |
| CCCSc1ccc2nc(NC(=O)OC)[nH]c2c1 [Albendazole] |  |  |  | % Phosphatase Activity (compared to DMSO) PRL-1 [1]: 102%; % Phosphatase Activity (compared to DMSO) PRL-2 [2]: 88%; % Phosphatase Activity (compared to DMSO) PRL-3 [3]: 78% |
| O=C[C@H](O)[C@@H](O)[C@H](O)CO [Xylose] |  |  |  | % Phosphatase Activity (compared to DMSO) PRL-1 [1, 5]: 115%; % Phosphatase Activity (compared to DMSO) PRL-2 [2, 5]: 102%; % Phosphatase Activity (compared to DMSO) PRL-3 [3, 5]: 68% |
| O=C(O)c1cc(O)c(O)c(O)c1 [Gallic acid] | 100 | 76 | 80 |  |
| CN(C)CCOC(c1ccccc1)c1ccccc1 [Diphenhydramine HCl] | 113 | 108 | 111 |  |
| CC(C)[C@H]1CC[C@H](C(=O)N[C@H](Cc2ccccc2)C(=O)O)CC1 [Nateglinide] | 92 | 90 | 73 |  |
| c1ccc(CN(CC2=NCCN2)c2ccccc2)cc1 [Antazoline HCl] | 91 | 104 | 76 |  |
| NNc1nncc2ccccc12 [Hydralazine HCl] |  |  |  | % Phosphatase Activity (compared to DMSO) PRL-1 [1]: 102%; % Phosphatase Activity (compared to DMSO) PRL-2 [2]: 85%; % Phosphatase Activity (compared to DMSO) PRL-3 [3]: 87% |
| Cc1cn(-c2cc(NC(=O)c3ccc(C)c(Nc4nccc(-c5cnccn5)n4)c3)cc(C(F)(F)F)c2)cn1 [Radotinib] | 96 | 83 | 89 |  |
| CCN1CCN(c2cc3c(cc2F)c(=O)c(C(=O)O)cn3C2CC2)CC1 [Enrofloxacin] | 152 | 176 | 118 |  |
| CC[C@@H]([C@H](C)O)n1ncn(-c2ccc(N3CCN(c4ccc(OC[C@@H]5CO[C@@](Cn6cncn6)(c6ccc(F)cc6F)C5)cc4)CC3)cc2)c1=O [Posaconazole] | 89 | 99 | 73 |  |
| Nc1ncn([C@H]2C[C@H](O)[C@@H](CO)O2)c(=O)n1 [Decitabine] | 114 | 93 | 81 |  |
| CC(CCc1ccccc1)NCC(O)c1ccc(O)c(C(N)=O)c1 (stereo not drawn) [Labetalol HCl] | 156 | 154 | 110 |  |
